From ChEMBL document CHEMBL4420075, “Seriniquinones, melanoma-specific anticancer agents” (2016)

Experiments:
HCT-116 [1] = test: Cytotoxicity in human HCT116 cells by MTT assay; type: functional, cell-based
SW-620 = test: Growth inhibition of human SW620 cells assessed as cell growth incubated for 48 hrs by sulforhodamine B assay; type: functional; set-up: concentration or dose not given beside the values
SNB-19 = test: Growth inhibition of human SNB19 cells assessed as cell growth incubated for 48 hrs by sulforhodamine B assay; type: functional; set-up: concentration or dose not given beside the values
COLO 205 = test: Growth inhibition of human COLO205 cells assessed as cell growth incubated for 48 hrs by sulforhodamine B assay; type: functional; set-up: concentration or dose not given beside the values
SK-MEL-28 = test: Growth inhibition of human SK-MEL-28 cells assessed as cell growth incubated for 48 hrs by sulforhodamine B assay; type: functional; set-up: concentration or dose not given beside the values
HCC 2998 = test: Growth inhibition of human HCC2998 cells assessed as cell growth incubated for 48 hrs by sulforhodamine B assay; type: functional; set-up: concentration or dose not given beside the values
T47D = test: Growth inhibition of human T47D cells assessed as cell growth incubated for 48 hrs by sulforhodamine B assay; type: functional; set-up: concentration or dose not given beside the values
HOP-92 = test: Growth inhibition of human HOP92 cells assessed as cell growth incubated for 48 hrs by sulforhodamine B assay; type: functional; set-up: concentration or dose not given beside the values
NCI-H460 = test: Growth inhibition of human NCI-H460 cells assessed as cell growth incubated for 48 hrs by sulforhodamine B assay; type: functional; set-up: concentration or dose not given beside the values
TK-10 = test: Growth inhibition of human TK10 cells assessed as cell growth incubated for 48 hrs by sulforhodamine B assay; type: functional; set-up: concentration or dose not given beside the values
CCRF-CEM = test: Growth inhibition of human CCRF-CEM cells assessed as cell growth incubated for 48 hrs by sulforhodamine B assay; type: functional; set-up: concentration or dose not given beside the values
OVCAR-5 = test: Growth inhibition of human OVCAR5 cells assessed as cell growth incubated for 48 hrs by sulforhodamine B assay; type: functional; set-up: scale not given: the % may be the effect or the level left
MDA-MB-231 = test: Growth inhibition of human MDA-MB-231 cells assessed as cell growth incubated for 48 hrs by sulforhodamine B assay; type: functional; set-up: concentration or dose not given beside the values
A498 = test: Growth inhibition of human A498 cells assessed as cell growth incubated for 48 hrs by sulforhodamine B assay; type: functional; set-up: concentration or dose not given beside the values
SR = test: Growth inhibition of human SR cells assessed as cell growth incubated for 48 hrs by sulforhodamine B assay; type: functional; set-up: concentration or dose not given beside the values
LOX IMVI = test: Growth inhibition of human LOXIMVI cells assessed as cell growth incubated for 48 hrs by sulforhodamine B assay; type: functional; set-up: concentration or dose not given beside the values
NCI-H226 = test: Growth inhibition of human NCI-H226 cells assessed as cell growth incubated for 48 hrs by sulforhodamine B assay; type: functional; set-up: concentration or dose not given beside the values
U-251 = test: Growth inhibition of human U251 cells assessed as cell growth incubated for 48 hrs by sulforhodamine B assay; type: functional; set-up: concentration or dose not given beside the values
M14 = test: Growth inhibition of human M14 cells assessed as cell growth incubated for 48 hrs by sulforhodamine B assay; type: functional; set-up: concentration or dose not given beside the values
HCT-15 = test: Growth inhibition of human HCT15 cells assessed as cell growth incubated for 48 hrs by sulforhodamine B assay; type: functional; set-up: scale not given: the % may be the effect or the level left
MCF7 = test: Growth inhibition of human MCF7 cells assessed as cell growth incubated for 48 hrs by sulforhodamine B assay; type: functional; set-up: concentration or dose not given beside the values
Hs-578T = test: Growth inhibition of human Hs 578T cells assessed as cell growth incubated for 48 hrs by sulforhodamine B assay; type: functional; set-up: concentration or dose not given beside the values
786-0 = test: Growth inhibition of human 786-0 cells assessed as cell growth incubated for 48 hrs by sulforhodamine B assay; type: functional; set-up: concentration or dose not given beside the values
DU-145 = test: Growth inhibition of human DU145 cells assessed as cell growth incubated for 48 hrs by sulforhodamine B assay; type: functional; set-up: concentration or dose not given beside the values
HOP-62 = test: Growth inhibition of human HOP62 cells assessed as cell growth incubated for 48 hrs by sulforhodamine B assay; type: functional; set-up: concentration or dose not given beside the values
RPMI-8226 = test: Growth inhibition of human RPMI8226 cells assessed as cell growth incubated for 48 hrs by sulforhodamine B assay; type: functional; set-up: concentration or dose not given beside the values
KM12 = test: Growth inhibition of human KM12 cells assessed as cell growth incubated for 48 hrs by sulforhodamine B assay; type: functional; set-up: concentration or dose not given beside the values
SF-295 = test: Growth inhibition of human SF295 cells assessed as cell growth incubated for 48 hrs by sulforhodamine B assay; type: functional; set-up: concentration or dose not given beside the values
A549 = test: Growth inhibition of human A549/ATCC cells assessed as cell growth incubated for 48 hrs by sulforhodamine B assay; type: functional; set-up: concentration or dose not given beside the values
SK-MEL-2 = test: Growth inhibition of human SK-MEL-2 cells assessed as cell growth incubated for 48 hrs by sulforhodamine B assay; type: functional; set-up: concentration or dose not given beside the values
MOLT-4 = test: Growth inhibition of human MOLT4 cells assessed as cell growth incubated for 48 hrs by sulforhodamine B assay; type: functional; set-up: concentration or dose not given beside the values
ACHN = test: Growth inhibition of human ACHN cells assessed as cell growth incubated for 48 hrs by sulforhodamine B assay; type: functional; set-up: scale not given: the % may be the effect or the level left
NCI-H23 = test: Growth inhibition of human NCI-H23 cells assessed as cell growth incubated for 48 hrs by sulforhodamine B assay; type: functional; set-up: concentration or dose not given beside the values
NCI/ADR-RES = test: Growth inhibition of human NCI/ADR-RES cells assessed as cell growth incubated for 48 hrs by sulforhodamine B assay; type: functional; set-up: concentration or dose not given beside the values
NCI-H322M = test: Growth inhibition of human NCI-H322M cells assessed as cell growth incubated for 48 hrs by sulforhodamine B assay; type: functional; set-up: scale not given: the % may be the effect or the level left
UO-31 = test: Growth inhibition of human UO31 cells assessed as cell growth incubated for 48 hrs by sulforhodamine B assay; type: functional; set-up: concentration or dose not given beside the values
UACC-62 = test: Growth inhibition of human UACC62 cells assessed as cell growth incubated for 48 hrs by sulforhodamine B assay; type: functional; set-up: concentration or dose not given beside the values
OVCAR-8 = test: Growth inhibition of human OVCAR8 cells assessed as cell growth incubated for 48 hrs by sulforhodamine B assay; type: functional; set-up: concentration or dose not given beside the values
Malme-3M = test: Growth inhibition of human MALME-3M cells assessed as cell growth incubated for 48 hrs by sulforhodamine B assay; type: functional; set-up: scale not given: the % may be the effect or the level left
CAKI-1 = test: Growth inhibition of human Caki1 cells assessed as cell growth incubated for 48 hrs by sulforhodamine B assay; type: functional; set-up: concentration or dose not given beside the values
SF-268 = test: Growth inhibition of human SF268 cells assessed as cell growth incubated for 48 hrs by sulforhodamine B assay; type: functional; set-up: concentration or dose not given beside the values
SNB-75 = test: Growth inhibition of human SNB75 cells assessed as cell growth incubated for 48 hrs by sulforhodamine B assay; type: functional; set-up: concentration or dose not given beside the values
OVCAR-3 = test: Growth inhibition of human OVCAR3 cells assessed as cell growth incubated for 48 hrs by sulforhodamine B assay; type: functional; set-up: concentration or dose not given beside the values
BT-549 = test: Growth inhibition of human BT549 cells assessed as cell growth incubated for 48 hrs by sulforhodamine B assay; type: functional; set-up: concentration or dose not given beside the values
OVCAR-4 = test: Growth inhibition of human OVCAR4 cells assessed as cell growth incubated for 48 hrs by sulforhodamine B assay; type: functional; set-up: concentration or dose not given beside the values
K562 = test: Growth inhibition of human K562 cells assessed as cell growth incubated for 48 hrs by sulforhodamine B assay; type: functional; set-up: concentration or dose not given beside the values
MDA-MB-468 = test: Growth inhibition of human MDA-MB-468 cells assessed as cell growth incubated for 48 hrs by sulforhodamine B assay; type: functional; set-up: concentration or dose not given beside the values
PC-3 = test: Growth inhibition of human PC3 cells assessed as cell growth incubated for 48 hrs by sulforhodamine B assay; type: functional; set-up: concentration or dose not given beside the values
HCT-116 [2] = test: Growth inhibition of human HCT116 cells assessed as cell growth incubated for 48 hrs by sulforhodamine B assay; type: functional; set-up: concentration or dose not given beside the values
SK-MEL-5 = test: Growth inhibition of human SK-MEL-5 cells assessed as cell growth incubated for 48 hrs by sulforhodamine B assay; type: functional; set-up: concentration or dose not given beside the values
HL-60(TB) = test: Growth inhibition of human HL-60(TB) cells assessed as cell growth incubated for 48 hrs by sulforhodamine B assay; type: functional; set-up: concentration or dose not given beside the values
HT-29 = test: Growth inhibition of human HT-29 cells assessed as cell growth incubated for 48 hrs by sulforhodamine B assay; type: functional; set-up: concentration or dose not given beside the values
MDA-MB-435 = test: Growth inhibition of human MDA-MB-435 cells assessed as cell growth incubated for 48 hrs by sulforhodamine B assay; type: functional; set-up: concentration or dose not given beside the values
SN12C = test: Growth inhibition of human SN12C cells assessed as cell growth incubated for 48 hrs by sulforhodamine B assay; type: functional; set-up: concentration or dose not given beside the values
RXF 393 = test: Growth inhibition of human RXF393 cells assessed as cell growth incubated for 48 hrs by sulforhodamine B assay; type: functional; set-up: concentration or dose not given beside the values
UACC-257 = test: Growth inhibition of human UACC257 cells assessed as cell growth incubated for 48 hrs by sulforhodamine B assay; type: functional; set-up: concentration or dose not given beside the values
SK-OV-3 = test: Growth inhibition of human SKOV3 cells assessed as cell growth incubated for 48 hrs by sulforhodamine B assay; type: functional; set-up: concentration or dose not given beside the values
SF-539 = test: Growth inhibition of human SF539 cells assessed as cell growth incubated for 48 hrs by sulforhodamine B assay; type: functional; set-up: scale not given: the % may be the effect or the level left
NCI-H522 = test: Growth inhibition of human NCI-H522 cells assessed as cell growth incubated for 48 hrs by sulforhodamine B assay; type: functional; set-up: concentration or dose not given beside the values

## CC(=O)Oc1ccc2c(=O)c3c(sc4c(=O)c5ccc(O)cc5c(=O)c43)c(=O)c2c1
HCT-116 [1]
  IC50: 1800 nM

## O=c1c2ccccc2c(=O)c2c1sc1c(=O)c3ccc(O)cc3c(=O)c12
HCT-116 [1]
  IC50: 1200 nM

## O=C(Nc1ccc2c(=O)c3c(sc4c(=O)c5cc(NC(=O)C(F)(F)F)ccc5c(=O)c43)c(=O)c2c1)C(F)(F)F
HCT-116 [1]
  IC50: 580 nM

## O=c1c2ccccc2c(=O)c2c1sc1c(=O)c3cc(O)ccc3c(=O)c12
HCT-116 [1]
  IC50: 1300 nM

## O=c1c2ccccc2c(=O)c2c1sc1c(=O)c3ccc(Cl)cc3c(=O)c12
HCT-116 [1]
  IC50: 280 nM

## O=c1c2cc(O)ccc2c(=O)c2c1sc1c(=O)c3cc(O)ccc3c(=O)c12
HCT-116 [1]
  IC50: 4400 nM

## CC(=O)Oc1ccc2c(=O)c3c(sc4c(=O)c5cc(O)ccc5c(=O)c43)c(=O)c2c1
HCT-116 [1]
  IC50: 1600 nM

## CC(C)(O)C(O)CCc1ccc2c(=O)c3sc4c(=O)c5ccccc5c(=O)c4c3c(=O)c2c1 (stereo not given)
SW-620
  Activity: -60.32%
SNB-19
  Activity: -98.59%
COLO 205
  Activity: -91.79%
SK-MEL-28
  Activity: -96.8%
HCC 2998
  Activity: -90.76%
T47D
  Activity: -51.1%
HOP-92
  Activity: -32.93%
NCI-H460
  Activity: -52.32%
TK-10
  Activity: -89.49%
CCRF-CEM
  Activity: -29.57%
OVCAR-5
  Activity: -85.63%
MDA-MB-231
  Activity: -15.99%
A498
  Activity: -87.3%
SR
  Activity: -25%
LOX IMVI
  Activity: -82.6%
NCI-H226
  Activity: -49.62%
U-251
  Activity: -92.83%
M14
  Activity: -93.82%
HCT-15
  Activity: -61.54%
MCF7
  Activity: -58.78%
Hs-578T
  Activity: 1.09%
786-0
  Activity: -95.07%
DU-145
  Activity: -94.41%
HOP-62
  Activity: -90.94%
RPMI-8226
  Activity: -39.84%
KM12
  Activity: -76.76%
SF-295
  Activity: -92.59%
A549
  Activity: -55.33%
SK-MEL-2
  Activity: -72.32%
MOLT-4
  Activity: -36.2%
ACHN
  Activity: -96.22%
NCI-H23
  Activity: -50.82%
NCI/ADR-RES
  Activity: -15.35%
NCI-H322M
  Activity: -97.48%
UO-31
  Activity: -96.98%
UACC-62
  Activity: -88.01%
OVCAR-8
  Activity: -38.88%
Malme-3M
  Activity: -93.22%
CAKI-1
  Activity: -78.75%
SF-268
  Activity: -57.54%
SNB-75
  Activity: -95.74%
OVCAR-3
  Activity: -68.52%
BT-549
  Activity: -96.67%
OVCAR-4
  Activity: -71.07%
K562
  Activity: -59.88%
MDA-MB-468
  Activity: -83.65%
PC-3
  Activity: -79.46%
HCT-116 [2]
  Activity: -80.84%
SK-MEL-5
  Activity: -98.07%
HL-60(TB)
  Activity: -46.78%
HT-29
  Activity: -46.19%
MDA-MB-435
  Activity: -93.07%
SN12C
  Activity: -69%
RXF 393
  Activity: -77.25%
UACC-257
  Activity: -92.08%
SK-OV-3
  Activity: -97.49%
SF-539
  Activity: -99.46%
NCI-H522
  Activity: -72.26%
